Data taken from ChEMBL document CHEMBL4130510, “Cytotoxic Dibohemamines D-F from a Streptomyces Species” (J Nat Prod, 2017).

Columns and labels:
A549 = assay: Cytotoxicity against human A549 cells by SRB assay; type: functional, cell-based
HepG2 = assay: Cytotoxicity against human HepG2 cells by SRB assay; type: functional, cell-based

| Compound | IC50 (A549) | IC50 (HepG2) |
| --- | --- | --- |
| CC(C)=CC(=O)NC1=C(CC2=C(NC(=O)C=C(C)C)N3[C@@H](C)[C@H]4O[C@H]4[C@@]3(C)C2=O)C(=O)[C@]2(C)C[C@H](O)[C@H](C)N12 | 1.1 µM | 0.3 µM |
| CC(C)=CC(=O)NC1=C(CC2=C(NC(=O)C=C(C)C)N3[C@@H](C)[C@H]4O[C@H]4[C@@]3(C)C2=O)C(=O)[C@]2(C)[C@H](O)C[C@H](C)N12 | 20.2 µM | 7.3 µM |
| CC(C)=CC(=O)NC1=C(CC2=C(NC(=O)C=C(C)C)N3[C@@H](C)[C@H]4O[C@H]4[C@@]3(C)C2=O)C(=O)[C@]2(C)[C@@H]3O[C@@H]3[C@H](C)N12 | 39.2 µM | 10.8 µM |
| CC(C)=CC(=O)NC1=CC(=O)[C@]2(C)C[C@H](O)[C@H](C)N12 [BOHEMAMINE B] | 502 µM | 181 µM |
| CC(C)=CC(=O)NC1=CC(=O)[C@]2(C)[C@@H]3O[C@@H]3[C@H](C)N12 [BOHEMAMINE] | 290 µM | 29.7 µM |
| COc1cccc2c1C(=O)c1c(O)c3c(c(O)c1C2=O)C[C@@](O)(C(=O)CO)C[C@@H]3O[C@H]1C[C@H](N)[C@H](O)[C@H](C)O1 [DOXORUBICIN] | 1.4 µM |  |
